Experimental data taken from publication PMC10710035 (Breast cancer research and treatment, 2023).
Where two headings read alike, the source gives them in different places. Each block holds one compound with its values, some of them ahead of it.

Columns and labels:
metastatic TNBC = settings: cited from earlier work
BRCA mutated TNBC = settings: addition of 120 mg BID to carboplatin plus paclitaxel; BROCADE 2; cited from earlier work
[1] = system: patients with advanced solid tumors; format: in vivo
[2] = Plasma pharmacokinetics, cycle 1 day 3; format: in vivo, human
[3] = system: patients with advanced solid tumors
patients [4] = settings: olaparib with carboplatin; cited from earlier work
early-stage TNBC = settings: weekly paclitaxel alone, then AC; 95% PI, 9-43%; cited from earlier work
patients [5] = settings: cited from earlier work
[6] = Expansion (n = 12), veliparib 150 mg bid continuous
[7] = Level 1 (n = 3), veliparib 50 mg bid
[8] = Level 2 (n = 3), veliparib 100 mg bid
[9] = Level 3 (n = 7), veliparib 150 mg bid
[10] = Level 4 (n = 5), veliparib 200 mg bid
[11] = cisplatin without veliparib, BRCA-like phenotype

SMILES: C[C@]1(c2nc3c(C(N)=O)cccc3[nH]2)CCCN1 [veliparib]
PFS at 1 year (metastatic TNBC; veliparib with cisplatin, BRCA-like phenotype): 20%
rate of grade 3/4 neutropenia (metastatic TNBC; veliparib with cisplatin): 46%
ORR (BRCA mutated TNBC): improved ORR
PFS benefit (BRCA mutated TNBC): did not translate into a PFS benefit
thrombocytopenia grade 3/4 ([1]; 4 patients of 30, all dose levels and cycles): 13%
anemia grade 3/4 ([1]; 7 patients of 30, all dose levels and cycles): 23%
neutropenia grade 3/4 ([1]; 18 patients of 30, all dose levels and cycles): 60%
relationship between veliparib dose level and incidence or severity of adverse events ([1]; 50-200 mg bid): no clear relationship
ALT increased, any grade ([1]; All Patients (N = 30)): 4 (13%)
AST increased, any grade ([1]; All Patients (N = 30)): 3 (10%)
Anemia, any grade ([1]; All Patients (N = 30)): 20 (67%)
Anemia, grade ≥ 3 ([1]; All Patients (N = 30)): 7 (23%)
Anorexia, any grade ([1]; All Patients (N = 30)): 3 (10%)
Any Grade ≥ 3 AE ([1]; All Patients (N = 30)): 24 (80%)
Any grade AE ([1]; All Patients (N = 30)): 28 (93%)
Bruising, any grade ([1]; All Patients (N = 30)): 2 (7%)
Dehydration, grade ≥ 3 ([1]; All Patients (N = 30)): 1 (3%)
Diarrhea, any grade ([1]; All Patients (N = 30)): 5 (17%)
Dysgeusia, any grade ([1]; All Patients (N = 30)): 2 (7%)
Fatigue, any grade ([1]; All Patients (N = 30)): 18 (60%)
Fatigue, grade ≥ 3 ([1]; All Patients (N = 30)): 1 (3%)
Febrile neutropenia, grade ≥ 3 ([1]; All Patients (N = 30)): 1 (3%)
Headache, any grade ([1]; All Patients (N = 30)): 3 (10%)
Hot flashes, any grade ([1]; All Patients (N = 30)): 4 (13%)
Hyperglycemia, any grade ([1]; All Patients (N = 30)): 2 (7%)
Hypocalcemia, any grade ([1]; All Patients (N = 30)): 3 (10%)
Hyponatremia, any grade ([1]; All Patients (N = 30)): 2 (7%)
Hypophosphatemia, any grade ([1]; All Patients (N = 30)): 4 (13%)
Hypophosphatemia, grade ≥ 3 ([1]; All Patients (N = 30)): 1 (3%)
Lymphocyte count decreased, any grade ([1]; All Patients (N = 30)): 11 (37%)
Lymphocyte count decreased, grade ≥ 3 ([1]; All Patients (N = 30)): 7 (23%)
Myalgia, any grade ([1]; All Patients (N = 30)): 3 (10%)
Nausea, any grade ([1]; All Patients (N = 30)): 16 (53%)
Nausea, grade ≥ 3 ([1]; All Patients (N = 30)): 2 (7%)
Neutrophil count decreased, any grade ([1]; All Patients (N = 30)): 24 (80%)
Neutrophil count decreased, grade ≥ 3 ([1]; All Patients (N = 30)): 18 (60%)
Peripheral sensory neuropathy, any grade ([1]; All Patients (N = 30)): 3 (10%)
Platelet count decreased, any grade ([1]; All Patients (N = 30)): 22 (73%)
Platelet count decreased, grade ≥ 3 ([1]; All Patients (N = 30)): 4 (13%)
Rash maculo-papular, any grade ([1]; All Patients (N = 30)): 2 (7%)
Vomiting, any grade ([1]; All Patients (N = 30)): 4 (13%)
Vomiting, grade ≥ 3 ([1]; All Patients (N = 30)): 1 (3%)
White blood cell decreased, any grade ([1]; All Patients (N = 30)): 22 (73%)
White blood cell decreased, grade ≥ 3 ([1]; All Patients (N = 30)): 15 (50%)
ALT increased, any grade [1, 6]: 3 (25%)
AST increased, any grade [1, 6]: 2 (17%)
Anemia, any grade [1, 6]: 9 (75%)
Anemia, grade ≥ 3 [1, 6]: 3 (25%)
Anorexia, any grade [1, 6]: 2 (17%)
Any Grade ≥ 3 AE [1, 6]: 11 (92%)
Any grade AE [1, 6]: 12 (100%)
Bruising, any grade [1, 6]: 1 (8%)
Dehydration, grade ≥ 3 [1, 6]: 1 (8%)
Diarrhea, any grade [1, 6]: 3 (25%)
Fatigue, any grade [1, 6]: 8 (67%)
Febrile neutropenia, grade ≥ 3 [1, 6]: 1 (8%)
Headache, any grade [1, 6]: 2 (17%)
Hot flashes, any grade [1, 6]: 2 (17%)
Hypocalcemia, any grade [1, 6]: 1 (8%)
Hypophosphatemia, any grade [1, 6]: 3 (25%)
Hypophosphatemia, grade ≥ 3 [1, 6]: 1 (8%)
Lymphocyte count decreased, any grade [1, 6]: 7 (58%)
Lymphocyte count decreased, grade ≥ 3 [1, 6]: 3 (25%)
Myalgia, any grade [1, 6]: 2 (17%)
Nausea, any grade [1, 6]: 10 (83%)
Nausea, grade ≥ 3 [1, 6]: 1 (8%)
Neutrophil count decreased, any grade [1, 6]: 10 (83%)
Neutrophil count decreased, grade ≥ 3 [1, 6]: 6 (50%)
Peripheral sensory neuropathy, any grade [1, 6]: 2 (17%)
Platelet count decreased, any grade [1, 6]: 10 (83%)
Platelet count decreased, grade ≥ 3 [1, 6]: 2 (17%)
Vomiting, any grade [1, 6]: 3 (25%)
White blood cell decreased, any grade [1, 6]: 10 (83%)
White blood cell decreased, grade ≥ 3 [1, 6]: 7 (58%)
Any Grade ≥ 3 AE [1, 7]: 2 (67%)
Any grade AE [1, 7]: 2 (67%)
Neutrophil count decreased, any grade [1, 7]: 2 (67%)
Neutrophil count decreased, grade ≥ 3 [1, 7]: 2 (67%)
Platelet count decreased, any grade [1, 7]: 1 (33%)
Anemia, any grade [1, 8]: 3 (100%)
Any Grade ≥ 3 AE [1, 8]: 2 (67%)
Any grade AE [1, 8]: 3 (100%)
Bruising, any grade [1, 8]: 1 (33%)
Diarrhea, any grade [1, 8]: 2 (67%)
Dysgeusia, any grade [1, 8]: 1 (33%)
Fatigue, any grade [1, 8]: 3 (100%)
Hot flashes, any grade [1, 8]: 1 (33%)
Hyperglycemia, any grade [1, 8]: 1 (33%)
Hypocalcemia, any grade [1, 8]: 1 (33%)
Hyponatremia, any grade [1, 8]: 1 (33%)
Myalgia, any grade [1, 8]: 1 (33%)
Nausea, any grade [1, 8]: 3 (100%)
Neutrophil count decreased, any grade [1, 8]: 3 (100%)
Neutrophil count decreased, grade ≥ 3 [1, 8]: 2 (67%)
Platelet count decreased, any grade [1, 8]: 3 (100%)
Rash maculo-papular, any grade [1, 8]: 1 (33%)
White blood cell decreased, any grade [1, 8]: 3 (100%)
White blood cell decreased, grade ≥ 3 [1, 8]: 1 (33%)
ALT increased, any grade [1, 9]: 1 (14%)
AST increased, any grade [1, 9]: 1 (14%)
Anemia, any grade [1, 9]: 4 (57%)
Anemia, grade ≥ 3 [1, 9]: 2 (29%)
Anorexia, any grade [1, 9]: 1 (14%)
Any Grade ≥ 3 AE [1, 9]: 4 (57%)
Any grade AE [1, 9]: 6 (86%)
Dysgeusia, any grade [1, 9]: 1 (14%)
Fatigue, any grade [1, 9]: 3 (43%)
Headache, any grade [1, 9]: 1 (14%)
Hot flashes, any grade [1, 9]: 1 (14%)
Hyperglycemia, any grade [1, 9]: 1 (14%)
Hypocalcemia, any grade [1, 9]: 1 (14%)
Hyponatremia, any grade [1, 9]: 1 (14%)
Hypophosphatemia, any grade [1, 9]: 1 (14%)
Lymphocyte count decreased, any grade [1, 9]: 2 (29%)
Lymphocyte count decreased, grade ≥ 3 [1, 9]: 2 (29%)
Nausea, any grade [1, 9]: 2 (29%)
Neutrophil count decreased, any grade [1, 9]: 4 (57%)
Neutrophil count decreased, grade ≥ 3 [1, 9]: 3 (43%)
Peripheral sensory neuropathy, any grade [1, 9]: 1 (14%)
Platelet count decreased, any grade [1, 9]: 4 (57%)
Platelet count decreased, grade ≥ 3 [1, 9]: 2 (29%)
Rash maculo-papular, any grade [1, 9]: 1 (14%)
White blood cell decreased, any grade [1, 9]: 4 (57%)
White blood cell decreased, grade ≥ 3 [1, 9]: 2 (29%)
Anemia, any grade [1, 10]: 4 (80%)
Anemia, grade ≥ 3 [1, 10]: 2 (40%)
Any Grade ≥ 3 AE [1, 10]: 5 (100%)
Any grade AE [1, 10]: 5 (100%)
Fatigue, any grade [1, 10]: 4 (80%)
Fatigue, grade ≥ 3 [1, 10]: 1 (20%)
Lymphocyte count decreased, any grade [1, 10]: 2 (40%)
Lymphocyte count decreased, grade ≥ 3 [1, 10]: 2 (40%)
Nausea, any grade [1, 10]: 1 (20%)
Nausea, grade ≥ 3 [1, 10]: 1 (20%)
Neutrophil count decreased, any grade [1, 10]: 5 (100%)
Neutrophil count decreased, grade ≥ 3 [1, 10]: 5 (100%)
Platelet count decreased, any grade [1, 10]: 4 (80%)
Vomiting, any grade [1, 10]: 1 (20%)
Vomiting, grade ≥ 3 [1, 10]: 1 (20%)
White blood cell decreased, any grade [1, 10]: 5 (100%)
White blood cell decreased, grade ≥ 3 [1, 10]: 5 (100%)
came off study due to toxicity ([1]; of the total 30 patients enrolled): 10 patients
clearance ([2]; human, in vivo): 387 mL/min
half-life ([2]; human, in vivo): 4.8 h
AUC0-12 and Cmax versus dose ([2]; in vivo): increase linearly with dose
DLT ([3]; in vivo): without DLT
patients who experienced a DLT ([3]; in vivo): none
MTD ([3]; with weekly carboplatin and paclitaxel, enrollment to DL4 terminated): not formally reached

SMILES: O=C(c1cc(Cc2n[nH]c(=O)c3ccccc23)ccc1F)N1CCN(C(=O)C2CC2)CC1 [olaparib]
tolerability with carboplatin (patients [4]): not tolerable

exposure (Cmax and AUC0-∞) across veliparib doses ([2]; human, in vivo): not altered
SMILES: CC(=O)O[C@H]1C(=O)[C@@]2(C)[C@H]([C@H](OC(=O)c3ccccc3)[C@]3(O)C[C@H](OC(=O)[C@H](O)[C@@H](NC(=O)c4ccccc4)c4ccccc4)C(C)=C1C3(C)C)[C@]1(OC(C)=O)CO[C@@H]1C[C@@H]2O [Paclitaxel, paclitaxel]
complete pathological response (cPR) rate (early-stage TNBC): 26%

SMILES: N.N.O=C([O-])C1(C(=O)[O-])CCC1.[Pt+2] [Carboplatin, carboplatin]
Cmax and AUC0-∞, impact of veliparib dose ([2]; ultrafilterable carboplatin, 20 evaluable patients): not impacted

SMILES: Cn1ncnc1[C@H]1c2n[nH]c(=O)c3cc(F)cc(c23)N[C@@H]1c1ccc(F)cc1 [Talazoparib, talazoparib]
single agent MTD (patients [5]; single agent): 1000 µg
patients with dose modification (patients [5]; talazoparib with carboplatin AUC5-6 and paclitaxel 80 mg/m^2 days 1, 8, 15 of 21-day cycles): 87-100%

SMILES: N.N.[Cl][Pt][Cl] [cisplatin]
PFS at 1 year (metastatic TNBC; [11]): 7%
median PFS (metastatic TNBC; [11]): 4.3 months
rate of grade 3/4 neutropenia (metastatic TNBC; in vivo): 19%
